Numbers after ± are expanded uncertainties.
Settings: 102 kPa, Liquid, Frequency=5 MHz, Single path-length method

Q: For CCCCC(=O)[O-].C[NH2+]CCO [2-hydroxy-N-methylethanaminium pentanoate], which speed of sound (293.15 K) is on record?
A: 1537 ± 2.6 m/s

Q: What about the speed of sound (298.15 K) of the same compound?
A: 1516.3 ± 2.6 m/s

Q: And the speed of sound (303.15 K)?
A: 1503.7 ± 2.6 m/s

Q: What about the speed of sound (308.15 K) of the same compound?
A: 1486.5 ± 2.6 m/s

Q: What about the speed of sound (313.15 K) of the same compound?
A: 1471 ± 2.6 m/s

Q: And the speed of sound (318.15 K)?
A: 1457 ± 2.6 m/s

Q: And the speed of sound (323.15 K)?
A: 1440 ± 2.6 m/s

Q: What about the speed of sound (328.15 K) of the same compound?
A: 1424.6 ± 2.6 m/s

Q: What about the speed of sound (333.15 K) of the same compound?
A: 1412.8 ± 2.6 m/s

Q: What about the speed of sound (338.15 K) of the same compound?
A: 1397.1 ± 2.6 m/s

Q: What about the speed of sound (343.15 K) of the same compound?
A: 1381.9 ± 2.6 m/s

Q: For CCCC(=O)[O-].C[NH2+]CCO [N-methyl-2-hydroxyethylammonium butanoate], which speed of sound (293.15 K) is on record?
A: 1576.8 ± 2.6 m/s

Q: What about the speed of sound (298.15 K) of the same compound?
A: 1562.9 ± 2.6 m/s

Q: What about the speed of sound (303.15 K) of the same compound?
A: 1548 ± 2.6 m/s

Q: And the speed of sound (308.15 K)?
A: 1529.7 ± 2.6 m/s

Q: What about the speed of sound (313.15 K) of the same compound?
A: 1511.9 ± 2.6 m/s

Q: And the speed of sound (318.15 K)?
A: 1499.4 ± 2.6 m/s

Q: And the speed of sound (323.15 K)?
A: 1481.3 ± 2.6 m/s

Q: And the speed of sound (328.15 K)?
A: 1467.2 ± 2.6 m/s

Q: What about the speed of sound (333.15 K) of the same compound?
A: 1451.2 ± 2.6 m/s

Q: And the speed of sound (338.15 K)?
A: 1436.7 ± 2.6 m/s

Q: And the speed of sound (343.15 K)?
A: 1419.4 ± 2.6 m/s

Reference: the NIST ThermoML archive (doi:10.1016/j.jct.2016.01.028)
